The numbers were not newly measured in patent publication US8524772B2, “Controlled release of N-acetylcysteine (NAC) for reduction of systemic and/or vascular inflammation” (Tiara Pharmaceuticals, Inc., priority 2008, dated 2013), which cites them from elsewhere.

Series [1] deals with LDL. As to conditions: in vitro.
The test system of series [2] is lipid loaded macrophages (foam cells).

With `CC(=O)NC(CS)C(=O)O` (stereo not drawn) [NAC, 2-acetamido-3-sulfanylpropanoic acid], in series [1], the “oxidative modification of LDL” value was “inhibited” and the “secondary oxidation of LDL by previously oxidized LDL” value is “markedly inhibited”. For the same compound, the “ability of foam cells to degrade vascular matrix” value in series [2] is “reduce”.
